One series has as its target PI3Kα (Homo sapiens, UniProt P42336). In words: PI3Kα activity determination. Format: biochemical. Conditions: 10-dose IC50 determination (n=3), 10 µM ATP.
The target in a further series is T1, human M1 receptor (Homo sapiens, UniProt P11229).
T1 sequence (P11229 1-460): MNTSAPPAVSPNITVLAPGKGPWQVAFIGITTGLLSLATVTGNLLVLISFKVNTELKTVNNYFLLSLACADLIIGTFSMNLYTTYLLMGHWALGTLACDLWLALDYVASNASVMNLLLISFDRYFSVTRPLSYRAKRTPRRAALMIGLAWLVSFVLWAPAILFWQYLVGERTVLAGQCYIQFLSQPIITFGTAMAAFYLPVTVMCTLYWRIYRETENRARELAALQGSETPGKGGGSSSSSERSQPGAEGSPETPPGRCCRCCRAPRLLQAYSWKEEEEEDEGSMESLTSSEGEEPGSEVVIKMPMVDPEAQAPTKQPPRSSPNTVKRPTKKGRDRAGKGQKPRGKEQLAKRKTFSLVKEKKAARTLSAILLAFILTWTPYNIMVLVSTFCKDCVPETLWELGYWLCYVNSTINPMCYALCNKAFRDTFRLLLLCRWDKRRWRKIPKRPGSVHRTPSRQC
Briefly: Cell-based functional M1 agonist assay.

Series [1] is described as follows: Dynamic light scattering aggregation. Format: physicochemical. Conditions: aqueous solution with 1 % DMSO.

Structures are written as SMILES.

For orientation: IC50 means the concentration that gives 50% inhibition. High values mean weaker potency, low ones greater potency. Broadly, the EC50 is the concentration at which the effect is half-maximal.

Chain of PI3Kα (P42336 whole entry): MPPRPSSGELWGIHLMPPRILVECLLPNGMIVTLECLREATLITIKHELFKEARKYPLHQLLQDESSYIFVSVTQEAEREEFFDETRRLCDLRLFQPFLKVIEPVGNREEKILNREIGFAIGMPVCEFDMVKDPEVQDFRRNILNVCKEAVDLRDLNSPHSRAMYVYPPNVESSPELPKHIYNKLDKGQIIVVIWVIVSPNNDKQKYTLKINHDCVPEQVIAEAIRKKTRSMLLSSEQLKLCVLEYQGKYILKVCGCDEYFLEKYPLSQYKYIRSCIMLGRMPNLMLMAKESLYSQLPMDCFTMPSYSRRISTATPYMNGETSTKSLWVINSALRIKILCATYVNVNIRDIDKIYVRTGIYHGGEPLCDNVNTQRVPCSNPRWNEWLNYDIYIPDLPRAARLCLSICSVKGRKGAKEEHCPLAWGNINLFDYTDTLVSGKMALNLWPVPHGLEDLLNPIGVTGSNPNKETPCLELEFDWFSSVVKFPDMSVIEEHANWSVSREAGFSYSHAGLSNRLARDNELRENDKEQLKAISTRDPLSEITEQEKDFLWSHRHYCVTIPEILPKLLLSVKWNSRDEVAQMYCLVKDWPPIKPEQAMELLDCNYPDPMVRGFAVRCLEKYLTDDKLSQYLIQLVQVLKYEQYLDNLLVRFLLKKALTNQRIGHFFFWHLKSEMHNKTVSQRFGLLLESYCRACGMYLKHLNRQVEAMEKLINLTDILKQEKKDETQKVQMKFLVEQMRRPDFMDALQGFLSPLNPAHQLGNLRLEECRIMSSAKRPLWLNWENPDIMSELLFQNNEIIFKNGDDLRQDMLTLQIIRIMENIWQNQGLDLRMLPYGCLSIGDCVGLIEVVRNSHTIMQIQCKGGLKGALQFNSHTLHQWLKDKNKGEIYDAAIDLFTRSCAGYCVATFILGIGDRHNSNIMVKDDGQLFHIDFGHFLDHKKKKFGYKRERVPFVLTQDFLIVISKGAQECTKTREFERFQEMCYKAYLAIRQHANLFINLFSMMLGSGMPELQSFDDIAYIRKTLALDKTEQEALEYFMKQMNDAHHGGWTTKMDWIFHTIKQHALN
Chain of PI3Kα (P27986 whole entry partner): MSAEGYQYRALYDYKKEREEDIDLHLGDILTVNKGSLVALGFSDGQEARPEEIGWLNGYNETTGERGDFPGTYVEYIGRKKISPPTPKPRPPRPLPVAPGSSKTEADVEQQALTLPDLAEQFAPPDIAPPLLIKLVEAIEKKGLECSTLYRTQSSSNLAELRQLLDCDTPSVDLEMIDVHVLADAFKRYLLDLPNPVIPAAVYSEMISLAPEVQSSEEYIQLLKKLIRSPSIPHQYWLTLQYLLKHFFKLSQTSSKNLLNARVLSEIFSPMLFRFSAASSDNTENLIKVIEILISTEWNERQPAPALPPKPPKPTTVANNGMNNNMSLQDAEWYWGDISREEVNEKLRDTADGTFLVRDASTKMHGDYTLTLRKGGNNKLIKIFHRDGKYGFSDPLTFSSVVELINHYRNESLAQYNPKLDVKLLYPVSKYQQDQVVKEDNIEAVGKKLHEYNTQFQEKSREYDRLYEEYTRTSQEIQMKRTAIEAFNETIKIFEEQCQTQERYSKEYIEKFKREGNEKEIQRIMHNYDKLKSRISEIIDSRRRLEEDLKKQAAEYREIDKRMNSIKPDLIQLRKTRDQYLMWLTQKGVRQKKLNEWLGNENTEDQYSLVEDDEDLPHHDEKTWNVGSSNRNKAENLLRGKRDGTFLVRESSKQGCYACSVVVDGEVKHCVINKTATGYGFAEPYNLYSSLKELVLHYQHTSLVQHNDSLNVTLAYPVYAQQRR

As to `COC(=O)CNc1c(-c2ccc(OC)cc2OC)nc2ccccn12` [Compound 1, methyl 2-((2-(2,4-dimethoxyphenyl)imidazo[1,2-a]pyridin-3-yl)amino)acetate], half-maximal inhibition on PI3Kα (IC50) required 131 µM.

`COC(=O)c1ccn2c(NCCN3CCOCC3)c(-c3cccn3C)nc2c1` [Compound 2, methyl 2-(1-methyl-1H-pyrrol-2-yl)-3-((2-morpholinoethyl)amino)imidazo[1,2-a] pyridine-7-carboxylate] showed an IC50 on PI3Kα of 230 ± 30 µM. The EC50 at human M1 receptor was approximately 5 µM. The “M1 agonistic activity, % of the effect caused by 100 nM acetylcholine” value on human M1 receptor (compound concentration of 10 µM) turned out to be 34±5%. In addition, the “concentrations at which aggregate particles were observable” value in series [1] fell in the range of 15.5 to 250 µM.
